# Assay: Strength and degradation profile of tigecycline 20 mg/mL bulk solutions by reversed phase HPLC (effect of temperature, time, pH, dissolved oxygen; Runs A to O)
# Format: physicochemical
# Settings: pH 7.7, Oxygen = 0.1 mg/L
# Method: The contents of the sample vials are dissolved in diluent. The sample solution is diluted, if necessary, and chromatographed on a reversed phase column using gradient elution. Impurities are determined by comparing the impurity peak areas in the sample preparation chromatogram to the average area of tigecycline peaks in the standard preparation chromatograms obtained concomitantly.
# Chromatographic Column—Length about 15 cm, inside diameter about 4.6 mm, packed with Inertsil ODS2, 5 μm size particles or equivalent.
# Detector—Ultraviolet spectrophotometric detector capable of operating at 248 nm with a sensitivity of about 0.5 absorbance units full scale.
# The results of additional studies to investigate the effect of processing parameters such as temperature, time, and dissolved oxygen content on the purity profile of tigecycline solutions using the following materials, methods and procedures are presented in Tables A to O.
# The experiments were run in plastic glove bags under normal laboratory light conditions. Plastic glove boxes will be used to control the headspace of the beakers. The batch size was 200 mL. • 1. Prepare the glove bag with a mixture of nitrogen and air to achieve an oxygen level in the solution as per the design. • 2. Place the jacketed beaker on the magnetic stirrer. Connect it to the cooler. Set the cooler to the desired set point. • 3. Add 200 mL of SWFI in to the beaker. Allow equilibrating. Measure the temperature and oxygen content. When it reaches the desired condition, add accurately weighed API and mix until dissolved. If necessary use spatula to aid dissolution. For pH adjustments, use 4 mL of either 0.1N NaOH or 0.1N HCl and 196 mL of WFI for manufacture. • 4. After complete dissolution, Transfer about 5.5 mL of Solution in vials and stopper them. These vials will be stoppered at the appropriate headspace conditions. Place the vials in appropriate temperature conditions. • 5. Sample the vials at 1, 4, 8, 10, 12 and 24 hours. Send the samples for analysis. Freeze the 10, 12 and 24 samples at −20° C. for analysis the following day. • 6. Measure pH and record color of the solution at each time point. Results
# The 1-hour samples were taken directly from the beakers. Samples for later time points were collected in stoppered vials processed in the atmosphere of the bag in order to simulate the headspace conditions then placed in water baths or refrigerator to maintain there respective temperature conditions. This was done to maintain safety in the lab. Disposable plastic glove bags require constant flow of a mixture of nitrogen and air to maintain headspace oxygen level that will result in the desired dissolved oxygen (DO) content in the sample. The pH of samples was measured at each sample points.
# Strength and degradation profile was analyzed by HPLC as described above. […] Degradation was slightly higher at higher temperature condition.
smiles,measurement,setting,value
CN(C)c1cc(NC(=O)CNC(C)(C)C)c(O)c2c1C[C@H]1C[C@H]3[C@H](N(C)C)C(O)=C(C(N)=O)C(=O)[C@@]3(O)C(O)=C1C2=O [Tigecycline],RRT 1.45,"Run #L, 2° C., 12 Hrs",0.07%
same,RRT 1.58,"Run #L, 2° C., 12 Hrs",BRL (BRL means below reporting limit (meaning less than 0.05% of tigecycline peak))
same,RRT 1.64 Mino,"Run #L, 2° C., 12 Hrs",0.14%
same,RRT 1.67 MW = 556,"Run #L, 2° C., 12 Hrs",BRL (BRL means below reporting limit (meaning less than 0.05% of tigecycline peak))
same,RRT 1.85 MW = 597,"Run #L, 2° C., 12 Hrs",0.08%
same,Strength,"Run #L, 2° C., 12 Hrs",19.448 mg/mL
same,Total,"Run #L, 2° C., 12 Hrs",0.58%
same,RRT 0.12 MW = 633,"Run #L, 2° C., 24 Hrs",BRL (BRL means below reporting limit (meaning less than 0.05% of tigecycline peak))
same,RRT 0.23 MW = 572,"Run #L, 2° C., 24 Hrs",BRL (BRL means below reporting limit (meaning less than 0.05% of tigecycline peak))
same,RRT 0.50 MW = 601,"Run #L, 2° C., 24 Hrs",BRL (BRL means below reporting limit (meaning less than 0.05% of tigecycline peak))
same,RRT 0.55 MW = 583,"Run #L, 2° C., 24 Hrs",BRL (BRL means below reporting limit (meaning less than 0.05% of tigecycline peak))
same,RRT 0.58,"Run #L, 2° C., 24 Hrs",0.09%
same,RRT 0.64 9-Amino,"Run #L, 2° C., 24 Hrs",BRL (BRL means below reporting limit (meaning less than 0.05% of tigecycline peak))
same,RRT 0.74 Epimer,"Run #L, 2° C., 24 Hrs",0.21%
same,RRT 0.76,"Run #L, 2° C., 24 Hrs",BRL (BRL means below reporting limit (meaning less than 0.05% of tigecycline peak))
same,RRT 0.78 MW = 557,"Run #L, 2° C., 24 Hrs",BRL (BRL means below reporting limit (meaning less than 0.05% of tigecycline peak))
same,RRT 1.12,"Run #L, 2° C., 24 Hrs",BRL (BRL means below reporting limit (meaning less than 0.05% of tigecycline peak))
same,RRT 1.45,"Run #L, 2° C., 24 Hrs",0.08%
same,RRT 1.58,"Run #L, 2° C., 24 Hrs",BRL (BRL means below reporting limit (meaning less than 0.05% of tigecycline peak))
same,RRT 1.64 Mino,"Run #L, 2° C., 24 Hrs",0.13%
same,RRT 1.67 MW = 556,"Run #L, 2° C., 24 Hrs",BRL (BRL means below reporting limit (meaning less than 0.05% of tigecycline peak))
same,RRT 1.85 MW = 597,"Run #L, 2° C., 24 Hrs",0.09%
same,Strength,"Run #L, 2° C., 24 Hrs",19.156 mg/mL
same,Total,"Run #L, 2° C., 24 Hrs",0.61%
same,RRT 0.12 MW = 633,"Run #M, 8° C., 1 Hrs",BRL (BRL means below reporting limit (meaning less than 0.05% of tigecycline peak))
same,RRT 0.23 MW = 572,"Run #M, 8° C., 1 Hrs",BRL (BRL means below reporting limit (meaning less than 0.05% of tigecycline peak))
same,RRT 0.50 MW = 601,"Run #M, 8° C., 1 Hrs",BRL (BRL means below reporting limit (meaning less than 0.05% of tigecycline peak))
same,RRT 0.55 MW = 583,"Run #M, 8° C., 1 Hrs",BRL (BRL means below reporting limit (meaning less than 0.05% of tigecycline peak))
same,RRT 0.58,"Run #M, 8° C., 1 Hrs",0.08%
same,RRT 0.64 9-Amino,"Run #M, 8° C., 1 Hrs",BRL (BRL means below reporting limit (meaning less than 0.05% of tigecycline peak))
same,RRT 0.74 Epimer,"Run #M, 8° C., 1 Hrs",0.20%
same,RRT 0.76,"Run #M, 8° C., 1 Hrs",0.06%
same,RRT 0.78 MW = 557,"Run #M, 8° C., 1 Hrs",BRL (BRL means below reporting limit (meaning less than 0.05% of tigecycline peak))
same,RRT 1.12,"Run #M, 8° C., 1 Hrs",BRL (BRL means below reporting limit (meaning less than 0.05% of tigecycline peak))
same,RRT 1.45,"Run #M, 8° C., 1 Hrs",BRL (BRL means below reporting limit (meaning less than 0.05% of tigecycline peak))
same,RRT 1.58,"Run #M, 8° C., 1 Hrs",BRL (BRL means below reporting limit (meaning less than 0.05% of tigecycline peak))
same,RRT 1.64 Mino,"Run #M, 8° C., 1 Hrs",0.14%
same,RRT 1.67 MW = 556,"Run #M, 8° C., 1 Hrs",BRL (BRL means below reporting limit (meaning less than 0.05% of tigecycline peak))
same,RRT 1.85 MW = 597,"Run #M, 8° C., 1 Hrs",BRL (BRL means below reporting limit (meaning less than 0.05% of tigecycline peak))
same,Strength,"Run #M, 8° C., 1 Hrs",19.270 mg/mL
same,Total,"Run #M, 8° C., 1 Hrs",0.47%
same,RRT 0.12 MW = 633,"Run #M, 8° C., 4 Hrs",BRL (BRL means below reporting limit (meaning less than 0.05% of tigecycline peak))
same,RRT 0.23 MW = 572,"Run #M, 8° C., 4 Hrs",BRL (BRL means below reporting limit (meaning less than 0.05% of tigecycline peak))
same,RRT 0.50 MW = 601,"Run #M, 8° C., 4 Hrs",BRL (BRL means below reporting limit (meaning less than 0.05% of tigecycline peak))
same,RRT 0.55 MW = 583,"Run #M, 8° C., 4 Hrs",BRL (BRL means below reporting limit (meaning less than 0.05% of tigecycline peak))
same,RRT 0.58,"Run #M, 8° C., 4 Hrs",0.07%
same,RRT 0.64 9-Amino,"Run #M, 8° C., 4 Hrs",BRL (BRL means below reporting limit (meaning less than 0.05% of tigecycline peak))
same,RRT 0.74 Epimer,"Run #M, 8° C., 4 Hrs",0.23%
same,RRT 0.76,"Run #M, 8° C., 4 Hrs",0.06%
same,RRT 0.78 MW = 557,"Run #M, 8° C., 4 Hrs",BRL (BRL means below reporting limit (meaning less than 0.05% of tigecycline peak))
same,RRT 1.12,"Run #M, 8° C., 4 Hrs",BRL (BRL means below reporting limit (meaning less than 0.05% of tigecycline peak))
same,RRT 1.45,"Run #M, 8° C., 4 Hrs",0.06%
same,RRT 1.58,"Run #M, 8° C., 4 Hrs",BRL (BRL means below reporting limit (meaning less than 0.05% of tigecycline peak))
same,RRT 1.64 Mino,"Run #M, 8° C., 4 Hrs",0.08%
same,RRT 1.67 MW = 556,"Run #M, 8° C., 4 Hrs",BRL (BRL means below reporting limit (meaning less than 0.05% of tigecycline peak))
same,RRT 1.85 MW = 597,"Run #M, 8° C., 4 Hrs",0.06%
same,Strength,"Run #M, 8° C., 4 Hrs",19.340 mg/mL
same,Total,"Run #M, 8° C., 4 Hrs",0.57%
same,RRT 0.12 MW = 633,"Run #M, 8° C., 8 Hrs",BRL (BRL means below reporting limit (meaning less than 0.05% of tigecycline peak))
same,RRT 0.23 MW = 572,"Run #M, 8° C., 8 Hrs",BRL (BRL means below reporting limit (meaning less than 0.05% of tigecycline peak))
same,RRT 0.50 MW = 601,"Run #M, 8° C., 8 Hrs",BRL (BRL means below reporting limit (meaning less than 0.05% of tigecycline peak))
same,RRT 0.55 MW = 583,"Run #M, 8° C., 8 Hrs",BRL (BRL means below reporting limit (meaning less than 0.05% of tigecycline peak))
same,RRT 0.58,"Run #M, 8° C., 8 Hrs",0.08%
same,RRT 0.64 9-Amino,"Run #M, 8° C., 8 Hrs",BRL (BRL means below reporting limit (meaning less than 0.05% of tigecycline peak))
same,RRT 0.74 Epimer,"Run #M, 8° C., 8 Hrs",0.24%
same,RRT 0.76,"Run #M, 8° C., 8 Hrs",0.06%
same,RRT 0.78 MW = 557,"Run #M, 8° C., 8 Hrs",BRL (BRL means below reporting limit (meaning less than 0.05% of tigecycline peak))
same,RRT 1.12,"Run #M, 8° C., 8 Hrs",BRL (BRL means below reporting limit (meaning less than 0.05% of tigecycline peak))
same,RRT 1.45,"Run #M, 8° C., 8 Hrs",0.07%
same,RRT 1.58,"Run #M, 8° C., 8 Hrs",BRL (BRL means below reporting limit (meaning less than 0.05% of tigecycline peak))
same,RRT 1.64 Mino,"Run #M, 8° C., 8 Hrs",0.11%
same,RRT 1.67 MW = 556,"Run #M, 8° C., 8 Hrs",BRL (BRL means below reporting limit (meaning less than 0.05% of tigecycline peak))
same,RRT 1.85 MW = 597,"Run #M, 8° C., 8 Hrs",0.06%
same,Strength,"Run #M, 8° C., 8 Hrs",19.238 mg/mL
same,Total,"Run #M, 8° C., 8 Hrs",0.62%
same,RRT 0.12 MW = 633,"Run #M, 8° C., 10 Hrs",BRL (BRL means below reporting limit (meaning less than 0.05% of tigecycline peak))
same,RRT 0.23 MW = 572,"Run #M, 8° C., 10 Hrs",BRL (BRL means below reporting limit (meaning less than 0.05% of tigecycline peak))
same,RRT 0.50 MW = 601,"Run #M, 8° C., 10 Hrs",BRL (BRL means below reporting limit (meaning less than 0.05% of tigecycline peak))
same,RRT 0.55 MW = 583,"Run #M, 8° C., 10 Hrs",0.09%
same,RRT 0.58,"Run #M, 8° C., 10 Hrs",0.07%
same,RRT 0.64 9-Amino,"Run #M, 8° C., 10 Hrs",BRL (BRL means below reporting limit (meaning less than 0.05% of tigecycline peak))
same,RRT 0.74 Epimer,"Run #M, 8° C., 10 Hrs",0.25%
same,RRT 0.76,"Run #M, 8° C., 10 Hrs",0.05%
same,RRT 0.78 MW = 557,"Run #M, 8° C., 10 Hrs",BRL (BRL means below reporting limit (meaning less than 0.05% of tigecycline peak))
